How the values were obtained:
TRPMLs = conditions: high concentrations needed; HEK293 cells expressing plasma-membrane TRPML1; cited from earlier work
TRPML2 = target: T1, TRPML2 (Homo sapiens, UniProt Q8IZK6); test: Fluorescent TRPML2 assay (as for TRPML1); type: cell-based
T1 construct: expressed in transfected cells
T1 sequence (Q8IZK6 1-566): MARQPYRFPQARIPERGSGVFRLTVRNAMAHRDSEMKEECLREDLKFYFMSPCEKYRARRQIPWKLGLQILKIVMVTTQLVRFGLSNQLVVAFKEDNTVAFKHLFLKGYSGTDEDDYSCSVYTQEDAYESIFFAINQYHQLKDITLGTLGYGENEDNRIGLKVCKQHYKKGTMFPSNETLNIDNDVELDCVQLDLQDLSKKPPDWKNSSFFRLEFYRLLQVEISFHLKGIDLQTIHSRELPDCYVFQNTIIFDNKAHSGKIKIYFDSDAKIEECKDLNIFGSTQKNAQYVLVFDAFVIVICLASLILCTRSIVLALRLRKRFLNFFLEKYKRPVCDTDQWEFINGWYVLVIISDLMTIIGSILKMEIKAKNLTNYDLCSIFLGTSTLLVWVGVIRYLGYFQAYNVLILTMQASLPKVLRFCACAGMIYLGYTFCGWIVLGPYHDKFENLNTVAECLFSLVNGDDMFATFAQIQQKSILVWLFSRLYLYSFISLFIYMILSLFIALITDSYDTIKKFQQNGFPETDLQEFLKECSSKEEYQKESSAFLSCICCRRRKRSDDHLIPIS
In short: (§1)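 HEK-293 Trex cells with tet-inducible (0.5 ug/mL doxycycline, overnight) surface-targeted mutant channel, Fluo4-AM loaded, suspended in Ringer's with 10 mM calcium. Compounds tested 20 µM to 6 nM final, half-log steps, triplicate; fluorescence at ex 480/em 540 nm. EC50 by non-linear regression of percent activity versus plate controls.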

TRPML3 = target: T2, TRPML3 (Homo sapiens, UniProt Q8TDD5); test: Fluorescent TRPML3 assay (as for TRPML1); type: cell-based
T2 construct: expressed in transfected cells
T2 sequence (Q8TDD5 1-553): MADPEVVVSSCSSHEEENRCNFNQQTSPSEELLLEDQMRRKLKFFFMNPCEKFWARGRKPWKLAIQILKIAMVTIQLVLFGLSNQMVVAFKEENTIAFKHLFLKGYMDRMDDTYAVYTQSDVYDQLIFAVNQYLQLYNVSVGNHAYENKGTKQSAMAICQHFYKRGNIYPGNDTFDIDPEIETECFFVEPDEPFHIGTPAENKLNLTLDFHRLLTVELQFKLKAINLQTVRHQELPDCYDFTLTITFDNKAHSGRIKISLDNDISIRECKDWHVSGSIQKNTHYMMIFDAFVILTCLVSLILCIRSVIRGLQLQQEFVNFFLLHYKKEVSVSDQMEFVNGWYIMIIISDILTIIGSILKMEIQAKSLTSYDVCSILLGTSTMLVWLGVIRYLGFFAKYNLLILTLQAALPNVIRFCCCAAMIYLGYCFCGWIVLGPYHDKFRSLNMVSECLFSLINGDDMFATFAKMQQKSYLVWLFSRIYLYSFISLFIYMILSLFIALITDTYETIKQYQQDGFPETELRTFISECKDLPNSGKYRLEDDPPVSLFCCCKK
In short: as §1

human TRPML1 = human TRPML1 (Homo sapiens, UniProt Q9GZU1); test: Fluorescent TRPML1 assay (Fluo4-AM calcium fluorescence, HEK-293 Trex cells); type: cell-based
human TRPML1, sequence (Q9GZU1 whole entry L15A/L16A/L577A/L578A, form open): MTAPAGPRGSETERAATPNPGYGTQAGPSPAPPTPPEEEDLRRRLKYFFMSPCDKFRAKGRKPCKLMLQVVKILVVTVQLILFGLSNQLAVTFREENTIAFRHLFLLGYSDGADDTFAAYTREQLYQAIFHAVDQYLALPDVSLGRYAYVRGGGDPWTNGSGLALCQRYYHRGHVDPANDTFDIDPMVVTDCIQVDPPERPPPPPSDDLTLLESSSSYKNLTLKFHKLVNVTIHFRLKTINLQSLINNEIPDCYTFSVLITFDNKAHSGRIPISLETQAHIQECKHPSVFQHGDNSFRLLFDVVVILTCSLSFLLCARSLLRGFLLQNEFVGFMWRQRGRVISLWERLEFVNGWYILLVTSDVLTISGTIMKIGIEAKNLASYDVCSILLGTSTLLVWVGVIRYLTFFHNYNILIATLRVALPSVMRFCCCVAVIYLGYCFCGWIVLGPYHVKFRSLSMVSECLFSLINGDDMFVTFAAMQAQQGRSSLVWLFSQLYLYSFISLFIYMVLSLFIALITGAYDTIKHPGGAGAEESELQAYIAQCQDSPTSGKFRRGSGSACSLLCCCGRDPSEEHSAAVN
In short: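 Tet-inducible HEK-293 Trex cells stably expressing surface-targeted mutant human TRPML1, induced with 0.5 ug/mL doxycycline overnight, loaded with Fluo4-AM and suspended in Ringer's with 10 mM calcium. Compounds tested from 20 μM to 6 nM final, half-log steps, in triplicate; fluorescence (ex 480/em 540) normalised to plate controls, EC50 by non-linear regression.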

Row | Structure (SMILES) | EC50 (TRPML2; Table 3, compounds 101-177) | EC50 (TRPML3; Table 3, compounds 101-177) | EC50 (human TRPML1; Table 3, compounds 101-177) | EC50 (TRPML2; Table 3, compounds 201-283) | EC50 (TRPML3; Table 3, compounds 201-283) | EC50 (human TRPML1; Table 3, compounds 201-283) | concentration needed to effectively activate TRPMLs (TRPMLs)
1 | CC1CC(C)(C)N(C(=O)CN2C(=O)c3ccccc3C2=O)c2ccccc21 (stereo not shown) [ML-SA1] |  |  |  |  |  |  | ~10 µM
2 | COC1(C(=O)N2C[C@H](C)N(c3ncnc4c3c(-c3ccccc3)cn4-c3cc(C#N)ccn3)C[C@H]2C)CC1 [Compound 283, 2-(4-((2S,5R)-4-(1-methoxycyclopropane-1-carbonyl)-2,5-dimethylpiperazin-1-yl)-5-phenyl-7H-pyrrolo[2,3-d]pyrimidin-7-yl)isonicotinonitrile] |  |  |  | 0.1 to 0.5 µM | < 0.1 µM | < 0.1 µM | 
3 | C[C@@H]1CN(c2ncnc3c2c(-c2ccccc2F)cn3-c2cc(C#N)ccn2)[C@@H](C)CN1C(=O)C1(F)CC1 [Compound 235, 2-(4-((2S,5R)-4-(1-fluorocyclopropane-1-carbonyl)-2,5-dimethylpiperazin-1-yl)-5-(2-fluorophenyl)-7H-pyrrolo[2,3-d]pyrimidin-7-yl)isonicotinonitrile] |  |  |  | 0.1 to 0.5 µM | 0.5 to 2 µM | < 0.1 µM | 
4 | COC1(C(=O)N2C[C@H](C)N(c3ncnc4c3c(-c3ccccc3F)cn4-c3cc(C#N)ccn3)C[C@H]2C)CC1 [Compound 267, 2-(5-(2-fluorophenyl)-4-((2S,5R)-4-(1-methoxycyclopropane-1-carbonyl)-2,5-dimethylpiperazin-1-yl)-7H-pyrrolo [2,3-d]pyrimidin-7-yl)isonicotinonitrile] |  |  |  | 0.1 to 0.5 µM | < 0.1 µM | < 0.1 µM | 
5 | C[C@H]1CN(C(=O)C(C)(C)C)CCN1c1ncnc2c1c(-c1ccccc1)cn2-c1cc(C#N)ccn1 [Compound 120, (S)-2-(4-(2-methyl-4-pivaloylpiperazin-1-yl)-5-phenyl-7H-pyrrolo[2,3-d]pyrimidin-7-yl)isonicotinonitrile] | 0.1 to 0.5 µM | < 0.1 µM | < 0.1 µM |  |  |  | 
6 | [2H]C([2H])([2H])C(C(=O)N1C[C@H](C)N(c2ncnc3c2c(-c2ccccc2F)cn3-c2cc(C#N)ccn2)C[C@H]1C)(C([2H])([2H])[2H])C([2H])([2H])[2H] [Compound 231, 2-(4-((2S,5R)-4-(2,2-bis(methyl-d3)propanoyl-3,3,3-d3)-2,5-dimethylpiperazin-1-yl)-5-(2-fluorophenyl)-7H-pyrrolo[2,3-d]pyrimidin-7-yl)isonicotinonitrile] |  |  |  | < 0.1 µM | < 0.1 µM | < 0.1 µM | 
7 | COC(C)(C)C(=O)N1CCN(c2ncnc3c2c(N2CCC2)cn3-c2cc(C#N)ccn2)C[C@H]1C [Compound 269, (R)-2-(5-(azetidin-1-yl)-4-(4-(2-methoxy-2-methylpropanoyl)-3-methylpiperazin-1-yl)-7H-pyrrolo[2,3-d]pyrimidin-7-yl)isonicotinonitrile] |  |  |  | < 0.1 µM | < 0.1 µM | < 0.1 µM | 

More lines, main results first:

Row | EC50 (TRPML2; Table 3, compounds 101-177) | EC50 (TRPML3; Table 3, compounds 101-177) | EC50 (human TRPML1; Table 3, compounds 101-177) | EC50 (TRPML2; Table 3, compounds 201-283) | EC50 (TRPML3; Table 3, compounds 201-283) | EC50 (human TRPML1; Table 3, compounds 201-283) | Structure (SMILES) | concentration needed to effectively activate TRPMLs (TRPMLs)
8 | 0.5 to 2 µM | < 0.1 µM | < 0.1 µM |  |  |  | C[C@H]1CN(C(=O)C(C)(C)C)CCN1c1ncnc2c1c(C1CC1)cn2-c1cc(C#N)ccn1 [Compound 104, (S)-2-(5-cyclopropyl-4-(2-methyl-4-pivaloylpiperazin-1-yl)-7H-pyrrolo[2,3-d]pyrimidin-7-yl)isonicotinonitrile] | 
9 |  |  |  | < 0.1 µM | < 0.1 µM | < 0.1 µM | C[C@H]1CN(C(=O)[C@@H](F)C(C)(C)C)CCN1c1ncnc2c1c(C1CC1)cn2-c1cc(C#N)ccn1 (single isomer, unassigned) [Compound 203] | 
10 |  |  |  | 0.5 to 2 µM | 0.1 to 0.5 µM | 0.1 to 0.5 µM | C[C@@H]1CN(c2ncnc3c2c(C2CCC2)cn3-c2cccc(F)c2)[C@@H](C)CN1C(=O)C(C)(C)C(F)(F)F [Compound 252, 1-((2R,5S)-4-(5-cyclobutyl-7-(3-fluorophenyl)-7H-pyrrolo[2,3-d]pyrimidin-4-yl)-2,5-dimethylpiperazin-1-yl)-3,3,3-trifluoro-2,2-dimethylpropan-1-one] | 
11 |  |  |  | > 2 µM | 0.5 to 2 µM | < 0.1 µM | C[C@@H]1CN(c2ncnc3c2c(C2CCC2)cn3-c2cccc(C(F)(F)F)c2)[C@@H](C)CN1C(=O)C(C)(C)C [Compound 261, 1-((2R,5S)-4-(5-cyclobutyl-7-(3-(trifluoromethyl)phenyl)-7H-pyrrolo[2,3-d]pyrimidin-4-yl)-2,5-dimethylpiperazin-1-yl)-2,2-dimethylpropan-1-one] | 
12 |  |  |  | < 0.1 µM | < 0.1 µM | < 0.1 µM | C[C@@H]1CN(c2ncnc3c2c(C(F)(F)F)cn3-c2cc(C#N)ccn2)[C@@H](C)CN1C(=O)CC(C)(C)C [Compound 209, 2-(4-((2S,5R)-4-(3,3-dimethylbutanoyl)-2,5-dimethylpiperazin-1-yl)-5-(trifluoromethyl)-7H-pyrrolo[2,3-d]pyrimidin-7-yl)isonicotinonitrile] | 
13 |  |  |  | > 2 µM | 0.5 to 2 µM | 0.1 to 0.5 µM | C[C@@H]1CN(c2ncnc3c2c(C2CCC2)cn3-c2cc(C#N)ccn2)[C@@H](C)CN1C(=O)C(C)(C)C [Compound 237, 2-(5-cyclobutyl-4-((2S,5R)-2,5-dimethyl-4-pivaloylpiperazin-1-yl)-7H-pyrrolo[2,3-d]pyrimidin-7-yl)isonicotinonitrile] | 
14 |  |  |  | 0.5 to 2 µM | < 0.1 µM | < 0.1 µM | COC(C)(C)C(=O)N1C[C@H](C)N(c2ncnc3c2c(C(F)(F)F)cn3-c2cc(C#N)ccn2)C[C@H]1C [Compound 208, 2-(4-((2S,5R)-4-(2-methoxy-2-methylpropanoyl)-2,5-dimethylpiperazin-1-yl)-5-(trifluoromethyl)-7H-pyrrolo[2,3-d]pyrimidin-7-yl)isonicotinonitrile] | 
15 |  |  |  | 0.5 to 2 µM | 0.1 to 0.5 µM | 0.1 to 0.5 µM | C[C@@H]1CN(c2ncnc3c2c(C2CCC2)cn3-c2cc(F)cc(F)c2)[C@@H](C)CN1C(=O)C(C)(C)C(F)(F)F [Compound 259, 1-((2R,5S)-4-(5-cyclobutyl-7-(3,5-difluorophenyl)-7H-pyrrolo[2,3-d]pyrimidin-4-yl)-2,5-dimethylpiperazin-1-yl)-3,3,3-trifluoro-2,2-dimethylpropan-1-one] | 
16 |  |  |  | 0.5 to 2 µM | < 0.1 µM | 0.1 to 0.5 µM | C[C@@H]1CN(c2ncnc3c2c(C2CCC2)cn3-c2cccc(C(F)(F)F)c2)[C@@H](C)CN1C(=O)C(C)(C)C(F)(F)F [Compound 263, 1-((2R,5S)-4-(5-cyclobutyl-7-(3-(trifluoromethyl)phenyl)-7H-pyrrolo[2,3-d]pyrimidin-4-yl)-2,5-dimethylpiperazin-1-yl)-3,3,3-trifluoro-2,2-dimethylpropan-1-one] | 

Source: patent US20240398812A1 (Caraway Therapeutics, Inc., priority 2021, published 2024)
